Data reported in the NIST ThermoML archive (doi:10.1016/j.jct.2004.05.008).
Numbers after ± are expanded uncertainties.

What was measured:
[1] = Crystal
[2] = Molar enthalpy of transition or fusion; settings: Crystal
[3] = molar heat capacity at constant pressure; settings: 101.33 kPa, Crystal

O=C1OC(=O)C2=C1CCCC2 [3,4,5,6-tetrahydrophthalic anhydride]
Settings | Molar enthalpy of transition or fusion [kcal/mol] | Triple point temperature [K]
[1] | – | 343.46 ± 0.25
[2] | 2.839 ± 0.0143 | –

[3]
Settings | molar heat capacity at constant pressure [J/K/mol]
80.34 K | 56.23 ± 0.63
83.47 K | 56.18 ± 0.63
86.53 K | 56.31 ± 0.64
89.58 K | 56.4 ± 0.64
92.48 K | 56.87 ± 0.69
95.3 K | 57.18 ± 0.7
98.08 K | 57.46 ± 0.7
100.82 K | 57.84 ± 0.7
103.56 K | 57.96 ± 0.71
106.09 K | 58.31 ± 0.71
108.63 K | 58.53 ± 0.71
111.12 K | 58.74 ± 0.71
113.61 K | 59.12 ± 0.71
116.02 K | 59.31 ± 0.71
118.43 K | 59.66 ± 0.71
120.75 K | 60.05 ± 0.72
123.08 K | 60.42 ± 0.72
125.35 K | 60.99 ± 0.72
127.64 K | 61.14 ± 0.73
129.84 K | 61.87 ± 0.73
132.12 K | 62.27 ± 0.74
134.33 K | 62.87 ± 0.74
136.53 K | 63.57 ± 0.75
138.65 K | 64.15 ± 0.75
140.81 K | 64.74 ± 0.76
142.92 K | 65.78 ± 0.77
145.08 K | 66.49 ± 0.77
147.12 K | 67.22 ± 0.77
149.15 K | 68.03 ± 0.78
151.27 K | 69 ± 0.79
153.3 K | 69.87 ± 0.8
155.3 K | 70.76 ± 0.81
157.37 K | 71.32 ± 0.81
159.37 K | 72.03 ± 0.81
161.36 K | 72.91 ± 0.82
163.27 K | 73.95 ± 0.83
165.22 K | 74.97 ± 0.84
167.13 K | 76.01 ± 0.85
169.12 K | 76.73 ± 0.85
171.05 K | 77.91 ± 0.86
172.94 K | 78.5 ± 0.86
174.85 K | 79.78 ± 0.87
176.72 K | 80.51 ± 0.88
178.63 K | 81.53 ± 0.89
180.46 K | 82.71 ± 0.9
182.28 K | 83.6 ± 0.91
184.11 K | 84.61 ± 0.91
185.95 K | 85.45 ± 0.92
187.77 K | 86.62 ± 0.93
189.63 K | 87.81 ± 0.94
191.38 K | 88.82 ± 0.95
193.21 K | 89.85 ± 0.96
194.95 K | 91.18 ± 0.96
196.74 K | 92.52 ± 0.98
198.56 K | 93.84 ± 0.99
200.32 K | 95.12 ± 1
202.04 K | 96 ± 1
203.79 K | 97.45 ± 1
205.5 K | 99.08 ± 1
207.28 K | 100.34 ± 1
208.94 K | 101.59 ± 1.1
210.65 K | 102.87 ± 1.1
212.31 K | 103.87 ± 1.1
214.01 K | 105.32 ± 1.1
215.67 K | 106.26 ± 1.1
217.29 K | 107.56 ± 1.1
218.95 K | 108.78 ± 1.1
220.53 K | 109.96 ± 1.1
